Experimental findings from ChEMBL document CHEMBL1137346, “Carbonic anhydrase inhibitors: clash with Ala65 as a means for designing inhibitors with low affinity for the ubiquitous isozyme II, exemplified by the crystal structure of the topiramate sulfamide analogue” (J Med Chem, 2006) are described below.

Targets include Carbonic anhydrase 13 (Mus musculus, UniProt Q9D6N1); Carbonic anhydrase 7 (Homo sapiens, UniProt P43166); Carbonic anhydrase 4 (Homo sapiens, UniProt P22748); Carbonic anhydrase 14 (Homo sapiens, UniProt Q9ULX7).
In assay [1] the target is Carbonic anhydrase 5B, mitochondrial (Homo sapiens, UniProt Q9Y2D0).
Assay [2] concerns the target Carbonic anhydrase 5A, mitochondrial (Homo sapiens, UniProt P35218).

Chain of Carbonic anhydrase 7 (P43166 whole entry): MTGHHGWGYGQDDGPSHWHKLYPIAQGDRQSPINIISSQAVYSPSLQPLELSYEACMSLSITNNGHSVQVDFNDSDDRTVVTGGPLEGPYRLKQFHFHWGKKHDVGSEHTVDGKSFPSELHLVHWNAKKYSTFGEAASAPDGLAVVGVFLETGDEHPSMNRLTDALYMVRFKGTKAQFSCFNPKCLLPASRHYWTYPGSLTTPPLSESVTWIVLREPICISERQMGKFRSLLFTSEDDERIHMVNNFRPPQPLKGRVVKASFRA
Chain of Carbonic anhydrase 4 (P22748 whole entry): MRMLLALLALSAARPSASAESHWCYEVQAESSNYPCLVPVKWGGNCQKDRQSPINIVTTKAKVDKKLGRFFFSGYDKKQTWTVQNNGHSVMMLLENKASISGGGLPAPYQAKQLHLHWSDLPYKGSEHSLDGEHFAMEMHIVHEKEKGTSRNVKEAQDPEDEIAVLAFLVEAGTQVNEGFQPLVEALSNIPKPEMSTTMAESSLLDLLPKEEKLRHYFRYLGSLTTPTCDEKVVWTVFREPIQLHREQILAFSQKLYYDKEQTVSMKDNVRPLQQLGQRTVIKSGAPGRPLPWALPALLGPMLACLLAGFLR
Chain of Carbonic anhydrase 5A, mitochondrial (P35218 whole entry): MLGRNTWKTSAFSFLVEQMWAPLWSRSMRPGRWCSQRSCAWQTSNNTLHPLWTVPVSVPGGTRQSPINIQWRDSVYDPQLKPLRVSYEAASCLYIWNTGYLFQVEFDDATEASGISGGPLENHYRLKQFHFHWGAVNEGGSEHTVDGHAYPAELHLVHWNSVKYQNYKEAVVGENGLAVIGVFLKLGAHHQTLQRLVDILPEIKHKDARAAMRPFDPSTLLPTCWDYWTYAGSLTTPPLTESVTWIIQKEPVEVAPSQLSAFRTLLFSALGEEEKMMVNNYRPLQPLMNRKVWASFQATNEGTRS
Chain of Carbonic anhydrase 5B, mitochondrial (Q9Y2D0 whole entry): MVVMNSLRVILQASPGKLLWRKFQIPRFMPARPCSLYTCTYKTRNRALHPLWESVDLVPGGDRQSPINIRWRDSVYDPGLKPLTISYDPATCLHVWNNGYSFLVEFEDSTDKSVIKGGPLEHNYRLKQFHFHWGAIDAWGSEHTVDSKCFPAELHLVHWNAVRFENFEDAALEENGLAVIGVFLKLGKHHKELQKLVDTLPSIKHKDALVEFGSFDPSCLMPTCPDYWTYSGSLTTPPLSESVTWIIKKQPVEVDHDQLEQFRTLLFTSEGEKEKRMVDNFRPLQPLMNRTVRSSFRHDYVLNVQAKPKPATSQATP
Chain of Carbonic anhydrase 13 (Q9D6N1 whole entry): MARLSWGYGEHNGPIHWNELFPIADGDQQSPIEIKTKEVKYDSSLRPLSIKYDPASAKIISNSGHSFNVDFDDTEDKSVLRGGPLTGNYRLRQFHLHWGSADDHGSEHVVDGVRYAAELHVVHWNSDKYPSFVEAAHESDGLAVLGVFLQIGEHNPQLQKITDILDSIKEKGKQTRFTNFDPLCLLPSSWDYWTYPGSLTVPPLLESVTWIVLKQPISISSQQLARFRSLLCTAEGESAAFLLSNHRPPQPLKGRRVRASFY
Chain of Carbonic anhydrase 14 (Q9ULX7 whole entry): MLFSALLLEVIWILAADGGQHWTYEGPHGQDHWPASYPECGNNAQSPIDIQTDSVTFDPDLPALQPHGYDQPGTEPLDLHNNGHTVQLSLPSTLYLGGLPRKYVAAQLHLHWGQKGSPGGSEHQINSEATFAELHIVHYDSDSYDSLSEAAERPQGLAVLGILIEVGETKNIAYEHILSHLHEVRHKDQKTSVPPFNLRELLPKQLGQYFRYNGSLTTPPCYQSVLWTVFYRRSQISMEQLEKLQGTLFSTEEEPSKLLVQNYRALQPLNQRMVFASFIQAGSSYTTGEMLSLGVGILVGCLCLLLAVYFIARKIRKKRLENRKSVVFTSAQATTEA

As usually defined, the Ki is a dissociation constant, usually derived from enzyme kinetics or from competition with a known ligand. As for `CC1(C)O[C@@H]2[C@@H](CO[C@@]3(CNS(N)(=O)=O)OC(C)(C)O[C@@H]23)O1`, the Ki on Carbonic anhydrase 13 was 30 nM; at Carbonic anhydrase 7, 35 nM; in assay [1], 21 nM; at Carbonic anhydrase 4, 941 nM; in assay [2], 32 nM; at Carbonic anhydrase 14, 25 nM.
